According to PubChem BioAssay AID248 (DTP/NCI, 2004):
Several values for one entry are separate records, joined by “and”; a condition that tells them apart may be missing. Equal values may be shown once. Toxic doses and inconclusive results are not listed. Rule as the data show it: active = T/C of 150% or more; inactive = T/C below 125%.

Tested on: L1210 leukemia ip in BDF1 mice, survival T/C
Experiment: NCI In Vivo Anticancer Drug Screen. Data for tumor model L1210 Leukemia (intraperitoneal) in B6D2F1 (BDF1) mice
Conditions: endpoint: mean survival time, higher = longer survival
How it was run: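 Each compound was tested against a transplantable tumor grown in mice. The endpoint was survival, with treated animals benchmarked against vehicle controls as a simple ratio.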

[1] = dose: 100.0 mg/kg/injection, schedule: Q01DX001 (ip), vehicle: Klucel (hydroxypropylcellulose) (HPC)
[2] = dose: 200.0 mg/kg/injection, schedule: Q01DX001 (ip), vehicle: Klucel (hydroxypropylcellulose) (HPC)
[3] = dose: 400.0 mg/kg/injection, schedule: Q01DX001 (ip), vehicle: Klucel (hydroxypropylcellulose) (HPC)
[4] = dose: 100.0 mg/kg/injection, schedule: Q01DX001 (ip), vehicle: saline
[5] = dose: 200.0 mg/kg/injection, schedule: Q01DX001 (ip), vehicle: saline
[6] = dose: 100.0 mg/kg/injection, schedule: Q01DX001 (ip), vehicle: carboxymethylcellulose (CMC)
[7] = dose: 400.0 mg/kg/injection, schedule: Q01DX001 (ip), vehicle: carboxymethylcellulose (CMC)
[8] = dose: 50.0 mg/kg/injection, schedule: Q04DX003 (ip), vehicle: saline
[9] = dose: 100.0 mg/kg/injection, schedule: Q04DX003 (ip), vehicle: saline
[10] = dose: 200.0 mg/kg/injection, schedule: Q01DX001 (ip), vehicle: carboxymethylcellulose (CMC)
[11] = dose: 75.0 mg/kg/injection, schedule: Q01DX001 (ip), vehicle: saline
[12] = dose: 50.0 mg/kg/injection, schedule: Q04DX003 (ip), vehicle: saline with Tween-80
[13] = dose: 100.0 mg/kg/injection, schedule: Q04DX003 (ip), vehicle: saline with Tween-80
[14] = dose: 100.0 mg/kg/injection, schedule: Q01DX009 (ip), vehicle: Klucel (hydroxypropylcellulose) (HPC)
[15] = dose: 200.0 mg/kg/injection, schedule: Q01DX009 (ip), vehicle: Klucel (hydroxypropylcellulose) (HPC)
[16] = dose: 400.0 mg/kg/injection, schedule: Q01DX009 (ip), vehicle: Klucel (hydroxypropylcellulose) (HPC)
[17] = dose: 100.0 mg/kg/injection, schedule: Q01DX009 (ip), vehicle: saline
[18] = dose: 100.0 mg/kg/injection, schedule: Q04DX003 (ip), vehicle: Klucel (hydroxypropylcellulose) (HPC)
[19] = dose: 200.0 mg/kg/injection, schedule: Q04DX003 (ip), vehicle: Klucel (hydroxypropylcellulose) (HPC)
[20] = dose: 400.0 mg/kg/injection, schedule: Q04DX003 (ip), vehicle: Klucel (hydroxypropylcellulose) (HPC)
[21] = dose: 200.0 mg/kg/injection, schedule: Q04DX003 (ip), vehicle: saline
[22] = dose: 400.0 mg/kg/injection, schedule: Q04DX003 (ip), vehicle: saline

Measured: T/C

COc1ccc2c(c1)CCC1C2CCC2(C)C(=O)OC(=O)C12 (centres undefined)
inactive: dose: 100.0 mg/kg/injection, schedule: Q01DX009 (sc), vehicle: steriod suspending solution 109 % of control | dose: 200.0 mg/kg/injection, schedule: Q01DX009 (sc), vehicle: steriod suspending solution 98 % of control | dose: 400.0 mg/kg/injection, schedule: Q01DX009 (sc), vehicle: steriod suspending solution 103 % of control

Cc1ccc(N)cc1[N+](=O)[O-]
inactive: [1] 105 % of control | [2] 95 % of control | [3] 95 % of control

O=C(Nc1ccc(S(=O)(=O)NC2CCCCC2)cc1)OCc1ccccc1
inactive: [4] 95 % of control | [5] 89 % of control | dose: 400.0 mg/kg/injection, schedule: Q01DX001 (ip), vehicle: saline 95 % of control

NC(=O)/C(=C\c1ccc([N+](=O)[O-])o1)c1ccccc1
inactive: [1] 96 % of control | [2] 93 % of control | [3] 96 % of control

CN1C(=O)CC(/C=C\[N+](=O)[O-])c2ccccc21 (centres undefined)
inactive: [6] 94 % of control | [7] 104 % of control

Cc1cccc(C[As](C)(=O)O)c1
inactive: dose: 25.0 mg/kg/injection, schedule: Q04DX003 (ip), vehicle: saline 94 % of control | [8] 98 % of control | [9] 100 % of control and 103 % of control

O=[N+]([O-])c1ccc(N=Cc2ccccc2O)c(O)c1
inactive: [6] 95 % of control | [10] 104 % of control | [7] 94 % of control

CCC[N+]1(C)CCOCC1
inactive: [11] 94 % of control and 89 % of control

CC1(C)CC(=O)C=C(N2CCC(CCCC3CCN(C4=CC(=O)CC(C)(C)C4)CC3)CC2)C1
inactive: [12] 94 % of control | [13] 102 % of control | dose: 200.0 mg/kg/injection, schedule: Q04DX003 (ip), vehicle: saline with Tween-80 88 % of control

COc1ccc(/C=N/NC(=O)c2ccccc2NC(=O)c2ccccc2Cl)cc1
inactive: dose: 50.0 mg/kg/injection, schedule: Q01DX009 (ip), vehicle: Klucel (hydroxypropylcellulose) (HPC) 91 % of control | [14] 107 % of control and 91 % of control | [15] 102 % of control | [16] 98 % of control and 91 % of control

Cc1cccc(C)c1N=C(N)NN
inactive: dose: 25.0 mg/kg/injection, schedule: Q01DX009 (ip), vehicle: saline 100 % of control | dose: 50.0 mg/kg/injection, schedule: Q01DX009 (ip), vehicle: saline 101 % of control | [8] 117 % of control | [4] 96 % of control | [17] 95 % of control | [9] 106 % of control | [5] 98 % of control

COc1cc2c(cc1OC)C(Cc1ccc([N+](=O)[O-])cc1)=[N+](C)CC2
inactive: [6] 103 % of control | [10] 105 % of control | [7] 108 % of control

CN(C)CCCN=Cc1ccc(O)cc1O.CN(C)CCCN=Cc1ccc(O)cc1O.[Ni+2]
inactive: dose: 25.0 mg/kg/injection, schedule: Q04DX003 (ip), vehicle: saline with Tween-80 91 % of control | [12] 91 % of control | [13] 89 % of control

Nc1nc(CCl)cs1
inactive: dose: 25.0 mg/kg/injection, schedule: Q04DX003 (ip), vehicle: Klucel (hydroxypropylcellulose) (HPC) 103 % of control | dose: 50.0 mg/kg/injection, schedule: Q04DX003 (ip), vehicle: Klucel (hydroxypropylcellulose) (HPC) 95 % of control | [18] 98 % of control and 100 % of control

OC1c2cc(Br)ccc2-c2c(F)cc(Br)cc21 (centres undefined)
inactive: [6] 100 % of control | [10] 109 % of control | [7] 103 % of control

C=C1C=C(C)N(C(C)=O)CCN1C(C)=O
inactive: [17] 95 % of control | dose: 200.0 mg/kg/injection, schedule: Q01DX009 (ip), vehicle: saline 92 % of control | dose: 400.0 mg/kg/injection, schedule: Q01DX009 (ip), vehicle: saline 90 % of control

CCN=C(c1ccc(NC(=O)c2ccc(C(=O)Nc3ccc(C(=NCC)N(CC)C(=O)NCCCCl)cc3)cc2)cc1)N(CC)C(=O)NCCCCl
inactive: dose: 0.5 mg/kg/injection, schedule: Q01DX015 (ip), vehicle: methylcellulose (MC) 100 % of control | dose: 1.0 mg/kg/injection, schedule: Q01DX015 (ip), vehicle: methylcellulose (MC) 102 % of control | dose: 2.0 mg/kg/injection, schedule: Q01DX015 (ip), vehicle: methylcellulose (MC) 111 % of control

CSc1nc(NC(=O)CCl)cc(=O)[nH]1
inactive: dose: 25.0 mg/kg/injection, schedule: Q01DX009 (ip), vehicle: Klucel (hydroxypropylcellulose) (HPC) 93 % of control and 97 % of control and 89 % of control | [14] 97 % of control and 89 % of control | [18] 90 % of control | [19] 98 % of control | [20] 102 % of control

Cc1cc(C)c(NC(=O)c2cccc(C(=O)Nc3c(C)cc(C)cc3C)c2)c(C)c1
inactive: [14] 102 % of control | [18] 91 % of control | [15] 104 % of control | [19] 88 % of control | [16] 96 % of control | [20] 88 % of control

O=[N+]([O-])c1ccc2[nH]c(=S)[nH]c2c1
inactive: [9] 98 % of control | [21] 103 % of control | [22] 95 % of control

O=C(CCc1ccccc1)Nc1ccc(F)cc1
inactive: dose: 100.0 mg/kg/injection, schedule: Q01DX001 (ip), vehicle: saline with Tween-80 95 % of control | dose: 100.0 mg/kg/injection, schedule: Q01DX009 (ip), vehicle: saline with Tween-80 97 % of control and 106 % of control | dose: 100.0 mg/kg/injection, schedule: Q04DX002 (ip), vehicle: saline with Tween-80 94 % of control and 98 % of control | dose: 200.0 mg/kg/injection, schedule: Q01DX001 (ip), vehicle: saline with Tween-80 95 % of control | dose: 200.0 mg/kg/injection, schedule: Q01DX009 (ip), vehicle: saline with Tween-80 93 % of control and 95 % of control | dose: 200.0 mg/kg/injection, schedule: Q04DX002 (ip), vehicle: saline with Tween-80 94 % of control and 102 % of control | dose: 400.0 mg/kg/injection, schedule: Q01DX001 (ip), vehicle: saline with Tween-80 94 % of control | dose: 400.0 mg/kg/injection, schedule: Q01DX009 (ip), vehicle: saline with Tween-80 98 % of control and 101 % of control | dose: 400.0 mg/kg/injection, schedule: Q04DX002 (ip), vehicle: saline with Tween-80 94 % of control and 97 % of control

O=C(C1C2CCC(CC2)C1C(=O)N1CCOCC1)N1CCOCC1 (centres undefined)
inactive: [9] 100 % of control | [21] 100 % of control | [22] 103 % of control

NCC1CC2CCC1CC2 (centres undefined)
inactive: dose: 12.5 mg/kg/injection, schedule: Q01DX009 (ip), vehicle: alcohol 106 % of control | dose: 25.0 mg/kg/injection, schedule: Q01DX009 (ip), vehicle: alcohol 101 % of control | dose: 50.0 mg/kg/injection, schedule: Q01DX009 (ip), vehicle: alcohol 106 % of control

CCCCCCCCC(=O)NCc1cccc(OC)c1
inactive: [18] 95 % of control | [19] 95 % of control | [20] 105 % of control

CC(C)c1oc(=O)cc2c1[C@@H](O)[C@H]1OC(=O)[C@@]3(C)[C@@H](O)[C@H]4O[C@H]4[C@@]2(C)[C@@H]13
inactive: dose: 5.0 mg/kg/injection, schedule: Q01DX001 (ip), vehicle: steriod suspending solution 105 % of control | dose: 10.0 mg/kg/injection, schedule: Q01DX001 (ip), vehicle: steriod suspending solution 98 % of control | dose: 20.0 mg/kg/injection, schedule: Q01DX001 (ip), vehicle: steriod suspending solution 110 % of control | dose: 40.0 mg/kg/injection, schedule: Q01DX001 (ip), vehicle: steriod suspending solution 104 % of control

C[N+](C)(C)CCCCCCCC[N+](C)(C)CCCCCCCCCC[N+](C)(C)CCCCCCCC[N+](C)(C)C
inactive: dose: 23.0 micrograms/kg/injection, schedule: Q04DX003 (ip), vehicle: saline 97 % of control | dose: 45.0 micrograms/kg/injection, schedule: Q04DX003 (ip), vehicle: saline 105 % of control | dose: 90.0 micrograms/kg/injection, schedule: Q04DX003 (ip), vehicle: saline 103 % of control

N=C(N)c1ncn(C2CCCC2)c1N
inactive: [11] 106 % of control | dose: 150.0 mg/kg/injection, schedule: Q01DX001 (ip), vehicle: saline 105 % of control
